Assay: Solubilizing potency: solubility of hydrocortisone in aqueous solutions of cyclodextrin derivatives
Assay type: physicochemical
Conditions: 5% (w/w) aqueous solutions of the derivative; P264 and P258 crystalline components used without heat drying

Solubility Of Hydrocortisone: 8800 µg/mL
Substance: Heptakisdimethylbetacyclodextrin
